Test results from patent US20250319115A1, “Compositions and Methods for Modulating Cytokines” (Flagship Pioneering Innovations VII, LLC, priority 2022, published 2025).

B1: SEQ ID NO: 3169: target protein of the Sequence Listing, secreted peptide (peptide, listed as Homo sapiens)
chain: MCHKGWHGPGVPHHVAFTPCKARLRPATQCQAHSSPRRKMVQAGSIPLAAASGRLCLTHAGWWRGAS
B2: SEQ ID NO: 4566: target protein of the Sequence Listing, secreted peptide (peptide, listed as Homo sapiens)
chain: LRPRSAAFAPRYTRLVMRRSSRSFRLQCTGFPSSSAQSISAHLSNSMPSSLLTISRCPGMFAVRCPL
B3: SEQ ID NO: 5537: target protein of the Sequence Listing, secreted peptide (peptide, listed as Homo sapiens)
chain: MQRLPAAFFRSFAAQGLGESVHINTPTSLSLRGRPFISSSGPGARARVTCAPCLHAARILCCFWRGLHR
B4: SEQ ID NO: 5631: target protein of the Sequence Listing, secreted peptide (peptide, listed as Homo sapiens)
chain: MMAQKSKFRVLFMSDPHGTAMPLTSAILESSRASLAAKQEDKCFTDIRNLKWKHFLEHTKQPP
B5: SEQ ID NO: 5931: target protein of the Sequence Listing, secreted peptide (peptide, listed as Homo sapiens)
chain: MSCGSRRGPSLASSLAWLQLQSGTRPFCSSSPPYFLSHGRRIPFSHPRKESALRATKEPRTHRTNTSLADLPSPAPAHL
B6: SEQ ID NO: 6517: target protein of the Sequence Listing, secreted peptide (peptide, listed as Homo sapiens)
chain: VALSLLTSQGRQRRAGPSTAFAALPATVATFSAMTESESLRTSRHADTALARVRRGAKFRGQARTRYCARARSHRFTPPSGA
B7: SEQ ID NO: 3494: target protein of the Sequence Listing, secreted peptide (peptide, listed as Homo sapiens)
chain: MSYLPTNPPGSILTCWLGVSLGSHRSARGGSTIYGRLLPRRKDVWFSQAKDVPKYRGLLYLQS

Tested on: Peripheral Blood Mononuclear Cells
Assay: PBMC cytokine release by Cytometric BeadArray, Activation format (peptide applied to PBMCs alone)
Type: cell-based, human
Design: key: X = a hit with significant activation or inhibition of relevant cytokine release
Conditions: 24 hours, supernatant CBA
Description: (§1) Peripheral Blood Mononuclear Cells were seeded+/−the T-cell activator […] and +/−peptides for 24-48 hours. Cytokines were measured from the supernatant after incubation by CBA Cytometer.
(§2) Thawing PBMCs: PBMCs were thawed by pre-warming TexMACS media (Miltenyi Biotech) in 20 ml aliquots-1-50 ml conical per donor. After the media was warmed to 37° C., cells were removed from liquid nitrogen and brought to the tissue culture hood. For each donor, 1 ml of media from the warmed aliquot was added to the frozen vial and mixed up and down. The media plus thawed cells were then added back to the 50 ml conical. This was repeated until all the cells were thawed and added to the 50 ml tube. Continue with other donors if used. Spin cells for 5 min at 400×g. Supernatant was aspirated and cells resuspended at ˜10*10^6 cells/ml (see vial for cell number).
(§3) PBMC Plating: Frozen PBMCs from normal, healthy, human volunteers (StemCell Technologies) were thawed and plated at 250,000 cells/well. After PBMCs were thawed and resuspended at […], cells were then counted (Countess III, Thermo Scientific) and adjusted based on counts to […]. Take the number of PBMCs determined by number of wells for the experiment, for example, 10 wells would need 2.5*10^6 cells total or 0.250 ml. The cells needed for the experiment are then transferred to another conical tube. Warmed TexMACS media is added so that the final concentration is 250,000 cells/190 ul media, for example, 10 wells would need 1.9 ml (190 ul×10 wells) of media total minus 0.250 ml of cells (1.9 ml-0.250 ml) or 1.65 ml of media added to the 0.250 ml of cells. Add 190 ul of cells plus media to the 96 well U-bottom plate. Place in incubator until dilutions are made and ready.
(§4) Peptide Dilutions: Ideally, all peptides should be at a starting concentration of at least 10 mM, especially for those in DMSO (ATCC) to reach a final concentration of 1 uM (H2O) or 0.5 uM (DMSO). Dilutions of all test articles should be made at 20× the final concentration, for example, a final concentration of 1 uM peptide would need to be made at 20 uM.
(§5) Reagent Dilution: Dilutions are made in TexMACS media, enough for 10 ul/well in triplicate (30 ul of a 20×). Activator—CD3/CD28 (TransAct; Miltenyi Biotech) or cytokine will be at 21× and added after the 45-minute incubation with peptides. Be sure to include relevant controls—Positive: TransAct+Cells, Negative: Vehicle+Cells. Dilutions should also be made in a ultra-low binding plate (Corning).
(§6) Assay Procedure: Peptide Treatment: Start assay by thawing the cells and plating in a 96 well, U-bottom tissue culture plate (Corning) as described above. Cell plates are placed in a tissue culture incubator (5% CO2, 37° C.). While cells are in the incubator, start making dilutions (optimally 1 hr or less) as described above. Cell plates are removed from the incubator and 10 ul of the 20× dilutions are added to the relevant wells. After the addition of inhibitors, cell plates are placed in the tissue culture incubator for 45 minutes. The plates are removed from the incubator and 10 ul of 21× TransAct is added to the relevant wells*. Plates are then returned to the incubator and incubated for 24 hours. After 24 hours, plates are spun for 5 minutes at 400×g.
(§7) * Activation: This assay can be run in two different formats—Activation and Inhibition. The procedure is the same except no TransAct is needed in the peptide wells for Activation. TransAct is only needed in the control wells. The purpose of this procedure is to determine the possible response from peptides alone.
(§8) Cytometric BeadArray (CBA): After the spin, supernatants (˜150 ul) are transferred to a new, ultra-low binding U-bottom plate. Supernatants are then frozen at −20° C. until thawed for CBA (BD) to determine levels of human IL-2, TNFα, IL-1b, IP-10, IL-10, and IFNg. CBA was run according to the manufacturers protocol.

Molecule	Activation by Analyte: IL-2	Activation by Analyte: IP-10	Activation by Analyte: IL-10	Activation by Analyte: IL-1b
SEQ ID NO: 5848: target protein of the Sequence Listing, secreted peptide (MARPLSLAAAGAPDLLFTALCSLLIEAQPLRPFDLQVLGDPQPRARTP; listed as Homo sapiens)	X			
SEQ ID NO: 5730: target protein of the Sequence Listing, secreted peptide (MVSHRKDWRRVNLRFSSCLLLSICLDDKPSADELCFWTDHGRSQLTCPSLGVSQGHARSS; listed as Homo sapiens)		X		
SEQ ID NO: 3462: target protein of the Sequence Listing, secreted peptide (METSCSLWVSSELFCRSVKVFFCLLALHLSALPHSSWTQDKNLGLAGMVELK; listed as Homo sapiens)		X		
SEQ ID NO: 4615: target protein of the Sequence Listing, secreted peptide (MTAFGLGIPTFLVMQPSGSQPRFPALTQNGVALVRTPLTSVYLRVRICRVLGPRSQPS; listed as Homo sapiens)		X	X	
SEQ ID NO: 6295: target protein of the Sequence Listing, secreted peptide (MWWKTPCWWTPSTTATSSSAEARSCGRLLKSMAG; listed as Homo sapiens)		X		
B1		X		
B2		X		
B3		X		
B4		X		
B5				X
B6		X		
B7		X		

Tested on: CD3/CD28 (TransAct) activated PBMCs
Assay: PBMC cytokine release by Cytometric BeadArray, Inhibition format (peptide with anti-CD3/CD28 T-cell activator)
Type: cell-based, human
Design: key to Inhibition by Analyte: IL-1b / Inhibition by Analyte: IL-2 / Inhibition by Analyte: TNF / Inhibition by Analyte: IP-10 / Inhibition by Analyte: IL-10: X = a hit with significant activation or inhibition of relevant cytokine release
Conditions: CD3/CD28 (TransAct) activated PBMCs, FIG. 7
Description: as §1, §2, §3, §4, §5, §6, §7, §8

Molecule	release of TNF-alpha from activated PBMCs
SEQ ID NO: 3585: target protein, anti-inflammatory cytokine modulator, secreted peptide (VAEPRRGHLKAALASLGGAAPAAATNGSPPLFK; listed as Homo sapiens)	significantly blocks

Same assay, conditions: CD3/CD28 (TransAct) activated PBMCs, FIG. 8

Molecule	release of IL-1b from activated PBMCs
SEQ ID NO: 3585: target protein, anti-inflammatory cytokine modulator, secreted peptide (VAEPRRGHLKAALASLGGAAPAAATNGSPPLFK; listed as Homo sapiens)	does not block

Same assay, conditions: peptide applied with anti-CD3/CD28 T-cell activator, 24 hours, supernatant CBA

Molecule	Inhibition by Analyte: IL-1b	Inhibition by Analyte: IL-2	Inhibition by Analyte: TNF	Inhibition by Analyte: IL-10	Inhibition by Analyte: IP-10
SEQ ID NO: 5843: target protein of the Sequence Listing, secreted peptide (MGGKSWLFFYSLVFCALLPLPRREDPFKLF; listed as Homo sapiens)	X				
SEQ ID NO: 5627: target protein of the Sequence Listing, secreted peptide (MSEVATLLFSQTALASLESVHPAGHKLWMRNLRQVTSP; listed as Homo sapiens)		X	X		
SEQ ID NO: 4615: target protein of the Sequence Listing, secreted peptide (MTAFGLGIPTFLVMQPSGSQPRFPALTQNGVALVRTPLTSVYLRVRICRVLGPRSQPS; listed as Homo sapiens)	X		X		
SEQ ID NO: 6518: target protein of the Sequence Listing, secreted peptide (MSFDHPEKNGPWPADPINLPSHG; listed as Homo sapiens)		X	X		
SEQ ID NO: 3585: target protein, anti-inflammatory cytokine modulator, secreted peptide (VAEPRRGHLKAALASLGGAAPAAATNGSPPLFK; listed as Homo sapiens)	X	X	X		
SEQ ID NO: 4174: target protein of the Sequence Listing, secreted peptide (MRSPLSASALLLWSSSVARAFSSPSLLMAVPSPTCSRY; listed as Homo sapiens)	X		X	X	X
SEQ ID NO: 1184: target protein of the Sequence Listing, synthesized peptide (LEMEGGCSPPIPHAGHRWKCQTVRVHA; listed as Homo sapiens)	X	X	X		X
SEQ ID NO: 5862: target protein of the Sequence Listing, secreted peptide (MESRTLLLLFSGAVALIQTWADYNYNQGRNDLIFTLQLWKRQ; listed as Homo sapiens)	X				
